In US20250228854A1, “HETEROCYCLIC SUBSTITUTED PYRIMIDOPYRAN COMPOUNDS AND THEIR APPLICATIONS” (priority 2023, published 2025):
Where a name gives a salt, the structure may show the parent alone.

Experiments:
[1] = tested on: p-ERK of KRAS^G12D mutant AsPC-1 cells; assay: AsPC-1 cell p-ERK inhibition test (HTRF), Experimental Example 1; format: cell-based; details: Homo sapiens, ASPC1, 3 hours compound incubation
Experimental: Experimental Example 1. AsPC-1 Cell p-ERK Inhibition Test
The inhibitory activity of the compound on p-ERK levels of KRAS^G12D-mutant pancreatic cancer AsPC-1 cells was assessed by HTRF.
ASPC-1 cells were purchased from ATCC; RPMI-1640 medium was purchased from Gibco; Fetal Bovine Serum was purchased from Hyclone; Advanced Phospho-ERK1/2 (THR202/TYR204) KIT was purchased from Bioauxilium—
ASPC-1 cells were seeded in a 384-well cell culture plate with a white bottom, 8 μL of cell suspension per well, containing 7,500 cells per well, and the cell plates were placed in a carbon dioxide incubator and incubated at 37° C. overnight;
The test compound was diluted to 3 mM with 100% DMSO as the first concentration, and then diluted to ten concentrations of 3000, 1000, 300, 100, 30, 10, 3, 1, 0.3, 0.1 μM with a pipette. Take 2 μL of compound and add 198 μL of cell starvation medium. After mixing well, take 15 μL of compound solution and add 35 μL of cell starvation medium and mix well. Then add 4 μL of compound solution in each well to the corresponding cell plate well. Place the cell plate back in the carbon dioxide incubator for continued incubation for 3 hours. At this time, the compound concentration is 3,000, 1,000, 300, 100, 30, 10, 3, 1, 0.3, 0.1 nM. […]
After the end of incubation, use a multi-label analyzer to read HTRF excitation: 320 nm, emission: 615 nm, 665 nm; […]

[2] = tested on: p-ERK in AsPC-1 cells (KRAS^G12D mutation, pancreatic cancer); assay: AsPC-1 cell p-ERK inhibition test, Experimental Example 2; details: Homo sapiens, ASPC1, read-out: AsPC-1 p-ERK IC50 (nM)
Experimental: 1640 medium, penicillin/streptomycin antibiotics were purchased from Gibco, and fetal bovine serum was purchased from Biosera. CellTiter-Glo (Cell Viability Chemiluminescence Detection Reagent) reagent was purchased from Promega. AsPC-1 cell line was purchased from ATCC, Envision Multi-Tag Analyzer (PerkinElmer).
AsPC-1 (KRAS^G12D mutation, pancreatic cancer) cells were seeded in ultra-low adsorption 96-well blackwall plate, 80 μL cell suspension per well, containing 10,000 AsPC-1 cell lines from ATCC cells. Plates were incubated overnight in a carbon dioxide incubator.
The test compound was diluted 8 concentrations with a 5-fold drain, i.e., from 2 mM to 25.6 nM, and a double replicate well experiment was set up. Add 78 μL of culture medium to the intermediate plate, and transfer 2 μL of gradient diluted compound per well to the intermediate plate according to the corresponding positions. Mix well and transfer 20 μL of each well to the cell plate. […] Another cell plate was prepared, and the signal value was read as the maximum value (Max value in the equation below) on the day of dosing to participate in the data analysis.
Each 100 μL of cell viability chemiluminescence detection reagent was added to the cell plate and incubated at room temperature for 30 minutes to stabilize the luminescence signal. Use multi-label analyzer for reading. […]

| SMILES | IC50 [1] [nM] | IC50 [2] [nM] |
| --- | --- | --- |
| C=C1CN2CCC[C@@]2(COc2nc3c(c(N4CC5CCC(CO)(C4)N5)n2)CO[C@H](c2c(F)c(N)cc(C#CC)c2C(F)(F)F)C3)C1 (some centres unmarked) [Hydrochloride of Compound 1] | 164 |  |
| C=C1CN2CCC[C@@]2(COc2nc3c(c(N4CC5CCC(C4)N5)n2)CO[C@H](c2c(F)c(N)cc(C#CCl)c2C(F)(F)F)C3)C1 [Trifluoroacetate of Compound 7] |  | 24.9 |
